In patent publication US9339471B2, “Long acting dual release product containing carbinoxamine and pseudoephedrine” (E5 PHARMA, LLC, priority 2007, dated 2016):

Test: Single dose fasted bioavailability study, 4 mg immediate release carbinoxamine maleate tablet
Type: in vivo
Parameters: Plasma concentration of carbinoxamine: unit not given here
Conditions: for Cmax / Tmax / half-life / AUC(0-t) / MRT: 4 mg
Excerpt: A single dose fasted bioavailability study was undertaken using four milligram immediate release carbinoxamine maleate tablets formulated in an immediate release format. Samples were taken over a forty eight hours period after administration of the drug, and the first meal was allowed to be ingested four hours after administration. Table 3 compares the observed pharmacokinetics from this test to those observed by Stockis et al. in Arzneim.-Forsch 1992, 42(12):1478-81, and Stockis et al. in Arzneim.-Forsch 1995, 45(9) 1009-1012.
FIG. 1 is a mean plasma concentration-time profile of the carbinoxamine after administering the immediate release tablet in the fasted state from time 0 to time 48 hours. Graph (A) is the linear ordinate; graph (B) is the log-linear ordinate.

[1] = human, plasma, po, Our study, Tablet 4 mg
[2] = human, plasma, po, fasted, Mean
[3] = human, plasma, po, fasted, subject 101
[4] = human, plasma, po, fasted, subject 102
[5] = human, plasma, po, fasted, subject 103

SMILES: CN(C)CCOC(c1ccc(Cl)cc1)c1ccccn1 (centres unmarked) [carbinoxamine, 2-[(4-chlorophenyl)-2-pyridinylmethoxy]-N,N-dimethylethanamine (Z)-2-butenedioate (1:1)]
- Plasma concentration of carbinoxamine (fasted, 0 h, subject 101T): blq
- Plasma concentration of carbinoxamine (fasted, 0 h, subject 102T): blq
- Plasma concentration of carbinoxamine (fasted, 0 h, subject 103T): blq
- Plasma concentration of carbinoxamine (fasted, 0.5 h, T-Mean): 315.41
- Plasma concentration of carbinoxamine (fasted, 0.5 h, subject 101T): 434.78
- Plasma concentration of carbinoxamine (fasted, 0.5 h, subject 102T): 459.42
- Plasma concentration of carbinoxamine (fasted, 0.5 h, subject 103T): 52.04
- Plasma concentration of carbinoxamine (fasted, 1 h, T-Mean): 4153.31
- Plasma concentration of carbinoxamine (fasted, 1 h, subject 101T): 5908.19
- Plasma concentration of carbinoxamine (fasted, 1 h, subject 102T): 4949.36
- Plasma concentration of carbinoxamine (fasted, 1 h, subject 103T): 1602.38
- Plasma concentration of carbinoxamine (fasted, 2 h, T-Mean): 6406.31
- Plasma concentration of carbinoxamine (fasted, 2 h, subject 101T): 6488.14
- Plasma concentration of carbinoxamine (fasted, 2 h, subject 102T): 5684.72
- Plasma concentration of carbinoxamine (fasted, 2 h, subject 103T): 7046.07
- Plasma concentration of carbinoxamine (fasted, 3 h, T-Mean): 7062.72
- Plasma concentration of carbinoxamine (fasted, 3 h, subject 101T): 8022.80
- Plasma concentration of carbinoxamine (fasted, 3 h, subject 102T): 6592.16
- Plasma concentration of carbinoxamine (fasted, 3 h, subject 103T): 6573.21
- Plasma concentration of carbinoxamine (fasted, 4 h, T-Mean): 6647.30
- Plasma concentration of carbinoxamine (fasted, 4 h, subject 101T): 7860.85
- Plasma concentration of carbinoxamine (fasted, 4 h, subject 102T): 6236.91
- Plasma concentration of carbinoxamine (fasted, 4 h, subject 103T): 5854.14
- Plasma concentration of carbinoxamine (fasted, 5 h, T-Mean): 6515.83
- Plasma concentration of carbinoxamine (fasted, 5 h, subject 101T): 7726.57
- Plasma concentration of carbinoxamine (fasted, 5 h, subject 102T): 6649.03
- Plasma concentration of carbinoxamine (fasted, 5 h, subject 103T): 5171.89
- Plasma concentration of carbinoxamine (fasted, 6 h, T-Mean): 5903.78
- Plasma concentration of carbinoxamine (fasted, 6 h, subject 101T): 7251.86
- Plasma concentration of carbinoxamine (fasted, 6 h, subject 102T): 6097.18
- Plasma concentration of carbinoxamine (fasted, 6 h, subject 103T): 4362.30
- Plasma concentration of carbinoxamine (fasted, 8 h, T-Mean): 5510.70
- Plasma concentration of carbinoxamine (fasted, 8 h, subject 101T): 6849.38
- Plasma concentration of carbinoxamine (fasted, 8 h, subject 102T): 5707.15
- Plasma concentration of carbinoxamine (fasted, 8 h, subject 103T): 3975.57
- Plasma concentration of carbinoxamine (fasted, 12 h, T-Mean): 4292.77
- Plasma concentration of carbinoxamine (fasted, 12 h, subject 101T): 5821.63
- Plasma concentration of carbinoxamine (fasted, 12 h, subject 102T): 4387.40
- Plasma concentration of carbinoxamine (fasted, 12 h, subject 103T): 2669.29
- Plasma concentration of carbinoxamine (fasted, 24 h, T-Mean): 2144.60
- Plasma concentration of carbinoxamine (fasted, 24 h, subject 101T): 2632.77
- Plasma concentration of carbinoxamine (fasted, 24 h, subject 102T): 2395.51
- Plasma concentration of carbinoxamine (fasted, 24 h, subject 103T): 1405.53
- Plasma concentration of carbinoxamine (fasted, 36 h, T-Mean): 1371.30
- Plasma concentration of carbinoxamine (fasted, 36 h, subject 101T): 1541.30
- Plasma concentration of carbinoxamine (fasted, 36 h, subject 102T): 1516.80
- Plasma concentration of carbinoxamine (fasted, 36 h, subject 103T): 1055.79
- Plasma concentration of carbinoxamine (fasted, 48 h, T-Mean): 876.29
- Plasma concentration of carbinoxamine (fasted, 48 h, subject 101T): 1102.33
- Plasma concentration of carbinoxamine (fasted, 48 h, subject 102T): 1003.18
- Plasma concentration of carbinoxamine (fasted, 48 h, subject 103T): 528.37
- Cmax [1]: 7.2 ng/mL
- Tmax [1]: 3.3 h
- half-life [1]: 18.3 h
- AUC(0-t) [2]: 161 ng·h/mL
- Cmax [2]: 7.24 ng/mL
- MRT [2]: 24.1 h
- Tmax [2]: 3.33 h
- half-life [2]: 18.4 h
- AUC(0-t) (human, plasma, po, fasted, Mean, first AUC column): 137 ng·h/mL
- Cmax [3]: 8.02 ng/mL
- MRT [3]: 24.7 h
- Tmax [3]: 3 h
- half-life [3]: 19.1 h
- AUC(0-t) (human, plasma, po, fasted, subject 101, first AUC column): 169 ng·h/mL
- AUC(0-t) (human, plasma, po, fasted, subject 101, second AUC column): 200 ng·h/mL
- Cmax [4]: 6.65 ng/mL
- MRT [4]: 25.9 h
- Tmax [4]: 5 h
- half-life [4]: 19.1 h
- AUC(0-t) (human, plasma, po, fasted, subject 102, first AUC column): 143 ng·h/mL
- AUC(0-t) (human, plasma, po, fasted, subject 102, second AUC column): 171 ng·h/mL
- Cmax [5]: 7.05 ng/mL
- MRT [5]: 21.7 h
- Tmax [5]: 2 h
- half-life [5]: 16.8 h
- AUC(0-t) (human, plasma, po, fasted, subject 103, first AUC column): 98.4 ng·h/mL
- AUC(0-t) (human, plasma, po, fasted, subject 103, second AUC column): 111 ng·h/mL
- AUC (human, plasma, po, Our study, Tablet 4 mg, read-out: AUC0-* ·): 161 ng·h/mL
- AUC(0-t) (plasma, po, Our study, Tablet 4 mg, AUC0-48): 137 ng·h/mL
